Source: US20030119066A1, “Diagnostic kit for detecting immunogenic response and method of screening” (Novozymes A/S, priority 2001, published 2003)

Tests used:
[1] = test system: specific antibodies; assay: Phage display library screening for clones binding specific antibodies; conditions: random hexa-, nona- or dodeca peptide phage display library
Text: In a particular method, the identification of antibody binding sequences may be achieved by screening a display package library, particularly a phage display library. The principle behind phage display is that a heterologous DNA sequence can be inserted in the gene coding for a coat protein of the phage (WO 92/15679). The phage will make and display the hybrid protein on its surface where it can interact with specific target agents. Such target agent may be antigen-specific antibodies. It is therefore possible to select specific phages that display antibody-binding peptide sequences. […] Thus, by screening for antibody binding, one can isolate the peptide sequences that have sufficiently high affinity for the particular antibody used. The peptides of the hybrid proteins of the specific phages which bind protein-specific antibodies characterize epitopes that are recognized by the immune system.
From a phage display library expressing random hexa-, nona- or dodeca peptides as part of their membrane proteins, specific phage clones were isolated capable of binding specific antibodies. […] The amino acid sequence of the corresponding oligopeptide was deduced from the DNA sequence.

[2] = test system: anti-Savinase® antibody; assay: ELISA of antibody binding capacity of immobilized peptides with sera raised against different proteins; parameters: species or system rabbits, rats, and mice; conditions: biotin-linked peptide on streptavidin plates, sera raised against Alcalase, Subtilisin Novo, Carezyme, Laccase, Natalase, SP722, Lipolase (FIG. 1)
Experimental: The antibody binding capacity of the two linear peptide sequences, RRFANDHTR (light gray bars) and RRFSNATRA (dark gray bars), were tested in an ELISA assay, by measuring optical density, OD. The sequences were tested for binding to antibodies in sera raised against different proteins. The different proteins are marked by capital letters A through H. A=Alcalase®, B=Savinase®, C=Subtilisin Novo®), D=Carezyme®) (cellulase), E=Laccase, F=Natalase® (amylase), G=SP722 (amylase), H=Lipolase® (lipase).
Specific IgG and IgE levels were determined using the ELISA specific for human, mouse or rat IgG or IgE. Differences between data sets were analysed by using appropriate statistical methods. The assays were performed as known to the expert.
The following sequences were synthezised, and immobilized on biotin, through a linker molecule:
The biotin-complex was immobilized in ELISA well plates, pre-coated with streptavidin. If phages were used, these were directly coated into the ELISA plate wells. ELISA was performed as described elsewhere, on sera from rabbits, rats, and mice raised against Alcalase®, Savinase®, and Subtilisin Novo® as well as a number of less relevant proteins.
In FIG. 1 the reactivity of the selected peptides in terms of antibody binding capacity is shown (ELISA assay). […]

| Substance | antibody binding of phage-displayed peptide [1] | reactivity (antibody binding capacity, optical density, OD) [2] |
| --- | --- | --- |
| VQVYGDTSA | specific antibody binding peptide |  |
| R R F S N A T R A (RRFSNATRA) |  | Reactivity was observed with anti-Savinase® antibody only |
| R R F A N D H T R (RRFANDHTR) |  | Reactivity was observed with anti-Savinase® antibody only |
